In ChEMBL document CHEMBL4428109, “Structure-activity relationship studies of non-carboxylic acid peroxisome proliferator-activated receptor α/δ (PPARα/δ) dual agonists” (Bioorg Med Chem, 2016):
Activity calls are given as the source filed them. The rule behind the calls is not given here.

Columns and labels:
[1] = biological target: T1, Peroxisome proliferator-activated receptor delta (Homo sapiens, UniProt Q03181); assay: Agonist activity at N-terminal Gal4 fused human PPARdelta LBD transfected in HEK293 cells after 24 hrs by luciferase reporter gene assay; format: cell-based
T1 sequence (Q03181 whole entry): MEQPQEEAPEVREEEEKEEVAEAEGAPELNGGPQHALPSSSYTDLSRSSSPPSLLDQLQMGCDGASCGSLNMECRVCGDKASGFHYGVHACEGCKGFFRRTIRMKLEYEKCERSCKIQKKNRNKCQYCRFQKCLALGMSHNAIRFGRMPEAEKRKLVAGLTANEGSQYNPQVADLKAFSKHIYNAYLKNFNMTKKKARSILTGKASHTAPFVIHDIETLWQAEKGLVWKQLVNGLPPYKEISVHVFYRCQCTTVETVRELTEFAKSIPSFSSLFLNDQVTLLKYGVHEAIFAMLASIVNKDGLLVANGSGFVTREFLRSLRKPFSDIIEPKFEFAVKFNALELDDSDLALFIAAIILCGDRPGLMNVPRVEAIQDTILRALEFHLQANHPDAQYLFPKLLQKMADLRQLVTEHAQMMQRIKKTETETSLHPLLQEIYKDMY

[2] = biological target: T2, Bile acid receptor (Homo sapiens) (UniProt Q96RI1); assay: Agonist activity at FXR (unknown origin) at < 20 uM
T2 sequence (whole entry): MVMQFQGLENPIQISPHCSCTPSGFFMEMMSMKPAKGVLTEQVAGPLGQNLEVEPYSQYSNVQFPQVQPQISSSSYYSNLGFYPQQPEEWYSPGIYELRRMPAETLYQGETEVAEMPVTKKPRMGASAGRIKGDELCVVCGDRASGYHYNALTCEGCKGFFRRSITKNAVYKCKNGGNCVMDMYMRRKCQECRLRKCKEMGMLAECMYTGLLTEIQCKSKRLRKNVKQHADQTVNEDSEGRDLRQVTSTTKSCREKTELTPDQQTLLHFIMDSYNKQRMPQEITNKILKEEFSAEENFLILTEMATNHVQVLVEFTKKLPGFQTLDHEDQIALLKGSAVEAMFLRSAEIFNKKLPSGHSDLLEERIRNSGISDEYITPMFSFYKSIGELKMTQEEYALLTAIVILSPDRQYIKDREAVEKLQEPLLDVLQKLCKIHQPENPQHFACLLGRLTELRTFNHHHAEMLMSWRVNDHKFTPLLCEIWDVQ

[3] = biological target: T3, Oxysterols receptor LXR-beta (Homo sapiens) (UniProt P55055); assay: Agonist activity at LXRbeta (unknown origin) at < 20 uM
T3 sequence (whole entry): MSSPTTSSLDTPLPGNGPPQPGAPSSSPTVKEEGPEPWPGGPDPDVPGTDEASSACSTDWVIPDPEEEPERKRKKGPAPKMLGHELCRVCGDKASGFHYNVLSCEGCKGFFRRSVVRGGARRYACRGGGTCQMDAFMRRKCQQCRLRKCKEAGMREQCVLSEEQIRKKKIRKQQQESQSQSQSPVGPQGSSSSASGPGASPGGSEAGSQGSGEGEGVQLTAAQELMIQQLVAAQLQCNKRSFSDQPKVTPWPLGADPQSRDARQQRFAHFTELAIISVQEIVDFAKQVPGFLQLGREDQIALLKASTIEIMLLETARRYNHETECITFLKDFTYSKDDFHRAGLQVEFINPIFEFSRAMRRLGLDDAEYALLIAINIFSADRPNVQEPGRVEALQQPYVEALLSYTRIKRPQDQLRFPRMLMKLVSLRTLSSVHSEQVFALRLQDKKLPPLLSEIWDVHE

[4] = biological target: T4, Oxysterols receptor LXR-alpha (Homo sapiens) (UniProt Q13133); assay: Agonist activity at LXRalpha (unknown origin) at < 20 uM
T4 sequence (whole entry): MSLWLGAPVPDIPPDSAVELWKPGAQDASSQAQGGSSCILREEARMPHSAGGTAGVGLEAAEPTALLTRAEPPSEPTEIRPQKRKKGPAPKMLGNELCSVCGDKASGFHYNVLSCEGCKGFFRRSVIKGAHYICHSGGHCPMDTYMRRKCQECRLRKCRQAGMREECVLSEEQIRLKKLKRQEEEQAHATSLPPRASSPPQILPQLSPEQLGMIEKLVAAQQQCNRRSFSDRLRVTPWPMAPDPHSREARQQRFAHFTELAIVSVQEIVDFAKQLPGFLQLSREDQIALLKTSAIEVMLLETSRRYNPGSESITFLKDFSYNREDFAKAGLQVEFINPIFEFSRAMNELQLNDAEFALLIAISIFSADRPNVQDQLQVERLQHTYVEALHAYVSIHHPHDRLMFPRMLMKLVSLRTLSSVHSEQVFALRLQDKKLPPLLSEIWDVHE

[5] = biological target: T5, Retinoic acid receptor RXR-beta (Homo sapiens) (UniProt P28702); assay: Agonist activity at RXRbeta (unknown origin) at < 20 uM
T5 sequence (whole entry): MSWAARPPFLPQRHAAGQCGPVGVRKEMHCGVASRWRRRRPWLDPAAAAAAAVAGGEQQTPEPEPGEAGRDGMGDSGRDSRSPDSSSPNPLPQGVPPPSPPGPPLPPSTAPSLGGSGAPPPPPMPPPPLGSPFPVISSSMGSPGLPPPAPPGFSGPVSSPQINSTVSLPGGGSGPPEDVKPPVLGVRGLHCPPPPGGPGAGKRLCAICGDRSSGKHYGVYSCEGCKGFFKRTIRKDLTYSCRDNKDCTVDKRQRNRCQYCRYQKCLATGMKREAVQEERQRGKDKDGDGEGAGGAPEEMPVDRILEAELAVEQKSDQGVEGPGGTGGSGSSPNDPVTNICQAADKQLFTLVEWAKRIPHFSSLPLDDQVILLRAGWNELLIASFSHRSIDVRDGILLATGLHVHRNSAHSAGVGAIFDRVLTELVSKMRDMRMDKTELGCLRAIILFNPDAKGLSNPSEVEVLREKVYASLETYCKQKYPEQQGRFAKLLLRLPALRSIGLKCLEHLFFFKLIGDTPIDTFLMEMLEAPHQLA

Compound: CC(=O)NC(C)c1nc(-c2ccc(Oc3ccc(OCc4ccccc4)cc3)cc2)no1 (stereo not given)
- EC50 [1]: 0.046 µM
- Activity [2]: inactive
- Activity [3]: inactive
- Activity [4]: inactive
- Activity [5]: inactive
